Test results from PMC9821906, “Synthesis of New Triazole-Based Thiosemicarbazone Derivatives as Anti-Alzheimer’s Disease Candidates: Evidence-Based In Vitro Study” (Molecules, 2022).

Tests used:
[1] = biological target: acetylcholinesterase (AChE) (Homo sapiens, UniProt P22303); assay type: biochemical
Experimental: (§1) Based on previously described methods, in vitro study of AChE inhibitory profile was calculated. In order to make a stock solution, compounds being analyzed were dissolved in DMSO (1 mg/mL). In addition, the working solutions were also prepared by using serial dilution (1–100 μg/mL). The solution of AChE enzyme (20 μL; 0.1 U/mL), analogues being tested with different concentration and buffer of sodium phosphate (150 μL; pH 8.0; 0.1 M) were preincubated appropriately at 25 °C. The process was initiated as DTNB (10 mM; 10 μL) and […] (14 mM; 10 μL) were accumulated. The resulting residue was mixed (by using cyclomixer) and put on incubation for 10 min at 25 °C. Instead of compounds being tested using 10 μL DMSO, the absorbance against blank reading was calculated with a microplate reader at 410 nm.
(§2) By plotting a nonlinear graph between inhibition and concentration, IC50 was calculated using GraphPad Prism 5.3.

[2] = biological target: butyrylcholinesterase (BuChE) (Homo sapiens, UniProt P06276); assay type: biochemical
Experimental: as §1, §2
In order to explore the inhibition profile of in vitro BuChE enzyme, a similar procedure was adopted. For measurement of BuChE activity, the solution containing BuChE enzyme was used.

Sequence of butyrylcholinesterase (BuChE) (P06276 29-602): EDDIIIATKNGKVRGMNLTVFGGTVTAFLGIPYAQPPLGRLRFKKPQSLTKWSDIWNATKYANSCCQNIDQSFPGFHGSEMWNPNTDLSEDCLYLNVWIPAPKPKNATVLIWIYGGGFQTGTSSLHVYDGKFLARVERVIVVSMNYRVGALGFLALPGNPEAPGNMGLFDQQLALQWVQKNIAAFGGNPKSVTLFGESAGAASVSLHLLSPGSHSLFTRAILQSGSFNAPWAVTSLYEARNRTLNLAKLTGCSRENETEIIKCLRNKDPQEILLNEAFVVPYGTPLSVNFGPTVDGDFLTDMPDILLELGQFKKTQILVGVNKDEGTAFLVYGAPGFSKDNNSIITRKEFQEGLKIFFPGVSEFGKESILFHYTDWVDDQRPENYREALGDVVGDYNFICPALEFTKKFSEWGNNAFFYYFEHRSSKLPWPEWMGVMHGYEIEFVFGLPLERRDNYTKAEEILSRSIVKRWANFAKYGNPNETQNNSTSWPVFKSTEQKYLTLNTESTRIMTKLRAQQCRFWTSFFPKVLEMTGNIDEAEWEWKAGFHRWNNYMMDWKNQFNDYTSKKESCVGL
Sequence of acetylcholinesterase (AChE) (P22303 32-614, species assumed): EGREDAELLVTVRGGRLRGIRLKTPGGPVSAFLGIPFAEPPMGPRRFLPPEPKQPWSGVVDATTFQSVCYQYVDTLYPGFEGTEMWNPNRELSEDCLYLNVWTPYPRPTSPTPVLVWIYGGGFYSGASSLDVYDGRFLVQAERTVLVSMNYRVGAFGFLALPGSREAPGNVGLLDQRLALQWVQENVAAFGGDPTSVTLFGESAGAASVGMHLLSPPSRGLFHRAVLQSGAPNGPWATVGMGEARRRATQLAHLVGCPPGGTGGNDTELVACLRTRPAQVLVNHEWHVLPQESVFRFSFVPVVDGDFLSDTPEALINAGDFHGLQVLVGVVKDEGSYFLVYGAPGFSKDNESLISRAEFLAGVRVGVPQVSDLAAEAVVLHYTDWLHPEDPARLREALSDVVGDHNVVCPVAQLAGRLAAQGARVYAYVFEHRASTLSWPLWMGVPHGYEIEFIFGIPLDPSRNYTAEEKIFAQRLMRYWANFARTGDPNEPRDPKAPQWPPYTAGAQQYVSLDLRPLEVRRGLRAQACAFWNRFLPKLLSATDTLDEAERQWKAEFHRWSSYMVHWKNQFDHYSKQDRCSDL

SMILES	IC50 [1]	Selectivity Index [1]	IC50 [2]	AChE IC50 [1]	BuChE IC50 [2]
O=[N+]([O-])c1ccc(-c2nnc(SC/C(=N/NC(=S)Nc3cccc([N+](=O)[O-])c3)c3ccc(-c4ccccc4)cc3)[nH]2)cc1 [6e, (.E)-2-(1-([1,1′-biphenyl]-4-yl)-2-((5-(4-nitrophenyl)-4H-1,2,4-triazol-3-yl)thio)ethylidene)-N-(3-nitrophenyl)hydrazine-1-carbothioamide]	4.7 ± 0.1 µM	1.34	6.3 ± 0.1 µM	–	–
O=[N+]([O-])c1ccc(-c2nnc(SC/C(=N/NC(=S)Nc3ccccc3)c3ccc(-c4ccccc4)cc3)[nH]2)cc1 [6c, (.E)-2-(1-([1,1′-biphenyl]-4-yl)-2-((5-(4-nitrophenyl)-4H-1,2,4-triazol-3-yl)thio)ethylidene)-N-phenylhydrazine-1-carbothioamide]	–	–	–	completely inactive	completely inactive
Cc1ccc(NC(=S)N/N=C(/CSc2nnc(-c3ccc([N+](=O)[O-])cc3)[nH]2)c2ccc(Cl)c(Cl)c2)c([N+](=O)[O-])c1 [6m, (.E)-2-(1-(3,4-dichlorophenyl)-2-((5-(4-nitrophenyl)-4H-1,2,4-triazol-3-yl)thio)ethylidene)-N-(4-methyl-2-nitrophenyl)hydrazine-1-carbothioamide]	2.7 ± 0.1 µM	1.41	3.8 ± 0.1 µM	–	–
O=[N+]([O-])c1ccc(-c2nnc(SC/C(=N/NC(=S)Nc3ccccc3)c3ccc(Cl)c(Cl)c3)[nH]2)cc1 [6o, (.E)-2-(1-(3,4-dichlorophenyl)-2-((5-(4-nitrophenyl)-4H-1,2,4-triazol-3-yl)thio)ethylidene)-N-phenylhydrazine-1-carbothioamide]	2.5 ± 0.3 µM	1.24	3.1 ± 0.4 µM	–	–
Cc1ccc(-c2ccc(NC(=S)N/N=C(/CSc3nnc(-c4ccc([N+](=O)[O-])cc4)[nH]3)c3ccc(-c4ccccc4)cc3)cc2)cc1 [6d, (.E)-2-(1-([1,1′-biphenyl]-4-yl)-2-((5-(4-nitrophenyl)-4H-1,2,4-triazol-3-yl)thio)ethylidene)-N-(4′-methyl-[1,1′-biphenyl]-4-yl)hydrazine-1-carbothioamide]	–	–	–	completely inactive	completely inactive
COc1ccc(OC)c(/C(CSc2nnc(-c3ccc([N+](=O)[O-])cc3)[nH]2)=N\NC(=S)Nc2ccc(C)cc2[N+](=O)[O-])c1 [6f, (.E)-2-(1-(2,5-dimethoxyphenyl)-2-((5-(4-nitrophenyl)-4H-1,2,4-triazol-3-yl)thio)ethylidene)-N-(4-methyl-2-nitrophenyl)hydrazine-1-carbothioamide]	2.4 ± 0.1 µM	1.96	4.7 ± 0.1 µM	–	–
Cc1ccc(NC(=S)N/N=C(/CSc2nnc(-c3ccc([N+](=O)[O-])cc3)[nH]2)c2ccccc2[N+](=O)[O-])c([N+](=O)[O-])c1 [6r, (.E)-N-(4-methyl-2-nitrophenyl)-2-(1-(2-nitrophenyl)-2-((5-(4-nitrophenyl)-4H-1,2,4-triazol-3-yl)thio)ethylidene)hydrazine-1-carbothioamide]	1.3 ± 0.05 µM	1.69	2.2 ± 0.1 µM	–	–
O=[N+]([O-])c1ccc(-c2nnc(SC/C(=N/NC(=S)Nc3cc(Cl)c(Cl)cc3[N+](=O)[O-])c3ccccc3Br)[nH]2)cc1 [6a, (.E)-2-(1-(2-bromophenyl)-2-((5-(4-nitrophenyl)-4H-1,2,4-triazol-3-yl)thio)ethylidene)-N-(4,5-dichloro-2-nitrophenyl)hydrazine-1-carbothioamide]	2.2 ± 0.1 µM	1.77	3.9 ± 0.1 µM	–	–
COc1ccc(OC)c(/C(CSc2nnc(-c3ccc([N+](=O)[O-])cc3)[nH]2)=N\NC(=S)Nc2ccc([N+](=O)[O-])cc2)c1 [6g, (.E)-2-(1-(2,5-dimethoxyphenyl)-2-((5-(4-nitrophenyl)-4H-1,2,4-triazol-3-yl)thio)ethylidene)-N-(4-nitrophenyl)hydrazine-1-carbothioamide]	2.1 ± 0.1 µM	2.04	4.3 ± 0.1 µM	–	–
CN(C)c1cc(Cl)c(NC(=S)N/N=C(/CSc2nnc(-c3ccc([N+](=O)[O-])cc3)[nH]2)c2ccc(-c3ccccc3)cc2)cc1Cl [6j, (.E)-2-(1-([1,1′-biphenyl]-4-yl)-2-((5-(4-nitrophenyl)-4H-1,2,4-triazol-3-yl)thio)ethylidene)-N-(2,5-dichloro-4-(dimethylamino)phenyl)hydrazine-1-carbothioamide]	11.3 ± 0.3 µM	1.09	12.3 ± 0.3 µM	–	–
Cc1ccc(-c2ccc(NC(=S)N/N=C(/CSc3nnc(-c4ccc([N+](=O)[O-])cc4)[nH]3)c3ccc(Cl)c(Cl)c3)cc2)cc1 [6p, (.E)-2-(1-(3,4-dichlorophenyl)-2-((5-(4-nitrophenyl)-4H-1,2,4-triazol-3-yl)thio)ethylidene)-N-(4′-methyl-[1,1′-biphenyl]-4-yl)hydrazine-1-carbothioamide]	3.2 ± 0.1 µM	1.44	4.6 ± 0.1 µM	–	–
O=[N+]([O-])c1ccc(NC(=S)N/N=C(/CSc2nnc(-c3ccc([N+](=O)[O-])cc3)[nH]2)c2ccccc2[N+](=O)[O-])cc1 [6s, (.E)-N-(4-nitrophenyl)-2-(1-(2-nitrophenyl)-2-((5-(4-nitrophenyl)-4H-1,2,4-triazol-3-yl)thio)ethylidene)hydrazine-1-carbothioamide]	1.4 ± 0.05 µM	1.64	2.3 ± 0.1 µM	–	–
COc1cccc(/C(CSc2nnc(-c3ccc([N+](=O)[O-])cc3)[nH]2)=N\NC(=S)Nc2ccc([N+](=O)[O-])cc2)c1 [6u, (.E)-2-(1-(3-methoxyphenyl)-2-((5-(4-nitrophenyl)-4H-1,2,4-triazol-3-yl)thio)ethylidene)-N-(4-nitrophenyl)hydrazine-1-carbothioamide]	2.9 ± 0.1 µM	1.28	3.7 ± 0.1 µM	–	–
COc1cccc(/C(CSc2nnc(-c3ccc([N+](=O)[O-])cc3)[nH]2)=N\NC(=S)Nc2ccc(C)cc2[N+](=O)[O-])c1 [6t, (.E)-2-(1-(3-methoxyphenyl)-2-((5-(4-nitrophenyl)-4H-1,2,4-triazol-3-yl)thio)ethylidene)-N-(4-methyl-2-nitrophenyl)hydrazine-1-carbothioamide]	1.9 ± 0.1 µM	1.32	2.5 ± 0.1 µM	–	–
Cc1ccc(-c2ccc(NC(=S)N/N=C(/CSc3nnc(-c4ccc([N+](=O)[O-])cc4)[nH]3)c3ccc(Br)cc3)cc2)cc1 [6k, (.E)-2-(1-(4-bromophenyl)-2-((5-(4-nitrophenyl)-4H-1,2,4-triazol-3-yl)thio)ethylidene)-N-(4′-methyl-[1,1′-biphenyl]-4-yl)hydrazine-1-carbothioamide]	12.2 ± 0.3 µM	1.15	14.1 ± 0.4 µM	–	–
Cc1ccc(NC(=S)N/N=C(/CSc2nnc(-c3ccc([N+](=O)[O-])cc3)[nH]2)c2ccc(Br)cc2)c([N+](=O)[O-])c1 [6h, (.E)-2-(1-(4-bromophenyl)-2-((5-(4-nitrophenyl)-4H-1,2,4-triazol-3-yl)thio)ethylidene)-N-(4-methyl-2-nitrophenyl)hydrazine-1-carbothioamide]	9.1 ± 0.2 µM	1.23	11.2 ± 0.3 µM	–	–
O=[N+]([O-])c1ccc(NC(=S)N/N=C(/CSc2nnc(-c3ccc([N+](=O)[O-])cc3)[nH]2)c2ccc(Cl)c(Cl)c2)cc1 [6n, (.E)-2-(1-(3,4-dichlorophenyl)-2-((5-(4-nitrophenyl)-4H-1,2,4-triazol-3-yl)thio)ethylidene)-N-(4-nitrophenyl)hydrazine-1-carbothioamide]	0.7 ± 0.05 µM	2.43	1.7 ± 0.05 µM	–	–
Cc1ccc(/C(CSc2nnc(-c3ccc([N+](=O)[O-])cc3)[nH]2)=N\NC(=S)Nc2cc(Cl)c(Cl)cc2[N+](=O)[O-])c([N+](=O)[O-])c1 [6l, (.E)-N-(4,5-dichloro-2-nitrophenyl)-2-(1-(4-methyl-2-nitrophenyl)-2-((5-(4-nitrophenyl)-4H-1,2,4-triazol-3-yl)thio)ethylidene)hydrazine-1-carbothioamide]	4.6 ± 0.01 µM	1.28	5.9 ± 0.1 µM	–	–
